# Laboratory results from ChEMBL document CHEMBL1201862, “PubChem BioAssay data set” (2004).
# Active and inactive are the calls of the source. How the calls were made is not given here.
# What was measured:
# Exodeoxyribonuclease V = target: T1, Exodeoxyribonuclease V (Escherichia coli (strain K12), UniProt P04993+P07648+P08394); assay: RecBCD inhibition via phage-restricted bacterial growth – absorbance, V66 E. coli, mutant T4 phage, counter-screen for AddAB inhibitor project, dose response (AID 492957); type: functional, cell-based, Escherichia coli str. K-12 substr. MG1655
# T1 sequence (P04993 whole entry): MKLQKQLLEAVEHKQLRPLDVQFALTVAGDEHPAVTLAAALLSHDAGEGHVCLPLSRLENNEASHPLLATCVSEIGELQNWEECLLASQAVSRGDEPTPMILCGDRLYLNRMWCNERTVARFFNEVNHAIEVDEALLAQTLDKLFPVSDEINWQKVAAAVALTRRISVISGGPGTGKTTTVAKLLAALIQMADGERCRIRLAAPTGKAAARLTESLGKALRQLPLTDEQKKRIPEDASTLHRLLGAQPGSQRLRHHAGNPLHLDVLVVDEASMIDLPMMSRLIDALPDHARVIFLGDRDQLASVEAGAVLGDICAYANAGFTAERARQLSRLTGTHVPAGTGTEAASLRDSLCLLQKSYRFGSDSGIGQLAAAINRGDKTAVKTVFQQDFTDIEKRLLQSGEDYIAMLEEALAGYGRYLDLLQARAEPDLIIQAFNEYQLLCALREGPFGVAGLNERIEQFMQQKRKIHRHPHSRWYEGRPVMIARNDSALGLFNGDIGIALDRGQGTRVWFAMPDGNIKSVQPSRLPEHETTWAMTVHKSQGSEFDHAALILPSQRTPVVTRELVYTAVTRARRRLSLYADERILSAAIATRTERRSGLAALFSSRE
# T1 sequence (P07648 whole entry): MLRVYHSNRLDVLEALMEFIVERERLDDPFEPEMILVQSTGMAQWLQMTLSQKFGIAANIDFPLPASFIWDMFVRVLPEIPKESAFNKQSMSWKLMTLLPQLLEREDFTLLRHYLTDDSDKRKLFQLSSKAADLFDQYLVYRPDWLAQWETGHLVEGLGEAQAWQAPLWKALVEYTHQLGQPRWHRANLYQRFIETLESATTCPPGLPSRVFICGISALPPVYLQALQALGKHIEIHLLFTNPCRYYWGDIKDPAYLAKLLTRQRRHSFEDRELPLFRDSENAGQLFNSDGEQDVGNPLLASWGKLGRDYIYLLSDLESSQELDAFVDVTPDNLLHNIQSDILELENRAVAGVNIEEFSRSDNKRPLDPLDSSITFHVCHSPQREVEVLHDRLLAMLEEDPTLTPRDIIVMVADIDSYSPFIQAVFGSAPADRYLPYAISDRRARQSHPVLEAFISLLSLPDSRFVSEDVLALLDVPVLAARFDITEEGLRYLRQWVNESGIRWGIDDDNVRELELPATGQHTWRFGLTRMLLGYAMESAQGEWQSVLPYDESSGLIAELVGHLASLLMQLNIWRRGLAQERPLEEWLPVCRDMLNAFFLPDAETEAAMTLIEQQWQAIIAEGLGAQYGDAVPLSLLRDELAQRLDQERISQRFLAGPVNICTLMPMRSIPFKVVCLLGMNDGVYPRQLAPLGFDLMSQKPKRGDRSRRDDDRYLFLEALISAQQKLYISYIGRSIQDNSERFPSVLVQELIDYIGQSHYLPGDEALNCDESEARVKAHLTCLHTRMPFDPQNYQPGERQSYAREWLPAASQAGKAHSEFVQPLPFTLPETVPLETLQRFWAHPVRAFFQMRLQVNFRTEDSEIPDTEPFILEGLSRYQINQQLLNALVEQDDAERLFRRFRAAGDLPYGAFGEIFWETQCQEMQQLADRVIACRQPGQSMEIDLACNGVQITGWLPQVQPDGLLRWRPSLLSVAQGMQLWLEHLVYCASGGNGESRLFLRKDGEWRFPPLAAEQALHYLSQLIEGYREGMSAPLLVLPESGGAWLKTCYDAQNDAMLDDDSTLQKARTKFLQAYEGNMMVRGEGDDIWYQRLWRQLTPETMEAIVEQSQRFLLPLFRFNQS
# T1 sequence (P08394 whole entry): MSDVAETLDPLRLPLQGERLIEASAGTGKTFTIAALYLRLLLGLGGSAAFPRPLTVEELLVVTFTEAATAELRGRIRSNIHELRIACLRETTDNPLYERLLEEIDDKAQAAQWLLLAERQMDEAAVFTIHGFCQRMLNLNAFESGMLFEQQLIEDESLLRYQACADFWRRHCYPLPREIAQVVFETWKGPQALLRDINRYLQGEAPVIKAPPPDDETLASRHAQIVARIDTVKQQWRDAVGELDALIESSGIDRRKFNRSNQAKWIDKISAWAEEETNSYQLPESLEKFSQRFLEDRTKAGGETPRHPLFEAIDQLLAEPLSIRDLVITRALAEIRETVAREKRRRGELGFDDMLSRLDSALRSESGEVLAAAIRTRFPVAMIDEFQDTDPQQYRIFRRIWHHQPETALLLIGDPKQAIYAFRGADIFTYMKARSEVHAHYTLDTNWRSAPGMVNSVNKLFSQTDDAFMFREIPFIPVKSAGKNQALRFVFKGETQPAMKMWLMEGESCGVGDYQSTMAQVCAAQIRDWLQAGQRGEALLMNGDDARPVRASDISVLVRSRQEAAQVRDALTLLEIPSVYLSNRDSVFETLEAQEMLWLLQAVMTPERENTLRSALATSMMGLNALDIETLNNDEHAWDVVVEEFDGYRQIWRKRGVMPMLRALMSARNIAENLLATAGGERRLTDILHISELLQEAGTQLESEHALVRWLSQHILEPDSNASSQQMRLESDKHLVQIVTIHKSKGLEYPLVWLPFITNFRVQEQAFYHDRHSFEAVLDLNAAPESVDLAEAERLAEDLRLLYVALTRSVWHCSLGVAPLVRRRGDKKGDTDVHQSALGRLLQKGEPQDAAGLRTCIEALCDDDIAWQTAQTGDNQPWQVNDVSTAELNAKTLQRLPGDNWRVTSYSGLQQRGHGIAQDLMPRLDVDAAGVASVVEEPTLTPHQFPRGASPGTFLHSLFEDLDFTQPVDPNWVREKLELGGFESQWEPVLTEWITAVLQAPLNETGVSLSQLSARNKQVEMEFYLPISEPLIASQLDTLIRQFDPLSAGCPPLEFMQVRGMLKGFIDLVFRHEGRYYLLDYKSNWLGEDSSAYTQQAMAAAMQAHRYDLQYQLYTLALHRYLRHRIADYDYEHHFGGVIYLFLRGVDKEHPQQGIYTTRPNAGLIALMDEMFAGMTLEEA
# [1] = Counterscreen for AddAB inhibitors: absorbance-based bacterial cell-based high throughput dose response assay for inhibitors of bacterial viability. [Related pubchem assays (depositor defined):AID435030, AID449728, AID449731, AID488942, AID488955, AID488956]; type: functional
compound,measurement,setting,value
O=[N+]([O-])c1ccc(N/N=C/c2ccc[nH]2)cc1,IC50,Exodeoxyribonuclease V,> 119 µM (inactive)
same,IC50,[1],> 119 µM (inactive)
